Columns and labels:
Format in all cases: binding
[1] = target: T1, panel of 442 kinases (Homo sapiens, UniProt Q9C098); conditions: Compound Concentration 10 µM
T1 construct: purchased KINOMEscan
Description: (§1) We assessed the selectivity of members of this scaffold using the KINOMEscan methodology across a near comprehensive panel of 442 kinases [[18,27]].

[2] = target: T2, panel of 442 kinases (Homo sapiens, UniProt Q9H1R3); conditions: Compound Concentration 10 µM
T2 construct: purchased KINOMEscan
T2 sequence (Q9H1R3 whole entry): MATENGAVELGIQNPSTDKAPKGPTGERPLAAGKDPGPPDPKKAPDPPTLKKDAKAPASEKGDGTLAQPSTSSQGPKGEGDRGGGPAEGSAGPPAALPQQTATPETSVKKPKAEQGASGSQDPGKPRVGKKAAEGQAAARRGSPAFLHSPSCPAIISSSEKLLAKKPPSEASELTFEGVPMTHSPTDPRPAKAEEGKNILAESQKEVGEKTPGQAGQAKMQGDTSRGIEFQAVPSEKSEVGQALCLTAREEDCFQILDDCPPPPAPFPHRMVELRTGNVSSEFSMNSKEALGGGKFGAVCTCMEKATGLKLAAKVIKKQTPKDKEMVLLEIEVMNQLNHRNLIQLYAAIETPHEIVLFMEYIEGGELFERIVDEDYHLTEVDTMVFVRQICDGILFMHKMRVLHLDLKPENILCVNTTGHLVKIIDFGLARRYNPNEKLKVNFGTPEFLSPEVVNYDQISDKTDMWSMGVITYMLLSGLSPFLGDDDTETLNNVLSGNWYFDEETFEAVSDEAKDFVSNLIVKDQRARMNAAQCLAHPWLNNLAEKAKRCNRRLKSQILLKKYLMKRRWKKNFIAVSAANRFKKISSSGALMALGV
Description: as §1

[3] = target: T3, panel of 442 kinases (Homo sapiens, UniProt Q9Y463); conditions: Compound Concentration 10 µM
T3 construct: purchased KINOMEscan
T3 sequence (Q9Y463 whole entry): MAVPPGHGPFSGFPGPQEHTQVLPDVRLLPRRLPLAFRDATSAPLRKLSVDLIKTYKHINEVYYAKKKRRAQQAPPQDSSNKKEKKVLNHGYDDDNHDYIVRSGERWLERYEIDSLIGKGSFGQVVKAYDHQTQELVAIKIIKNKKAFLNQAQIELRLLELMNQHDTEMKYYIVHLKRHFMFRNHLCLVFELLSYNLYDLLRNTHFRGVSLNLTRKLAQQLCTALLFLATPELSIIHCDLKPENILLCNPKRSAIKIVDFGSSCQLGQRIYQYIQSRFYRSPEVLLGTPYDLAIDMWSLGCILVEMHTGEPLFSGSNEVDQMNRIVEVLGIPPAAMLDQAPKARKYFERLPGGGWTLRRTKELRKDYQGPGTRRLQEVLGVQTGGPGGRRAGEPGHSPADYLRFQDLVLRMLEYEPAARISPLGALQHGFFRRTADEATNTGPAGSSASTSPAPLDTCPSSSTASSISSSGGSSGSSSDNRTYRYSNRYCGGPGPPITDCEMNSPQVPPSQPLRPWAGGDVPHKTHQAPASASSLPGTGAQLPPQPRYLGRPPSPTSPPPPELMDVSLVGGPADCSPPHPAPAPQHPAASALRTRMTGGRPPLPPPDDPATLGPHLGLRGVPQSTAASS
Description: as §1

[4] = target: T4, panel of 442 kinases (Homo sapiens, UniProt P12931); conditions: kinase SRC; compound concentration 10 µM
T4 construct: purchased KINOMEscan
T4 sequence (P12931 whole entry): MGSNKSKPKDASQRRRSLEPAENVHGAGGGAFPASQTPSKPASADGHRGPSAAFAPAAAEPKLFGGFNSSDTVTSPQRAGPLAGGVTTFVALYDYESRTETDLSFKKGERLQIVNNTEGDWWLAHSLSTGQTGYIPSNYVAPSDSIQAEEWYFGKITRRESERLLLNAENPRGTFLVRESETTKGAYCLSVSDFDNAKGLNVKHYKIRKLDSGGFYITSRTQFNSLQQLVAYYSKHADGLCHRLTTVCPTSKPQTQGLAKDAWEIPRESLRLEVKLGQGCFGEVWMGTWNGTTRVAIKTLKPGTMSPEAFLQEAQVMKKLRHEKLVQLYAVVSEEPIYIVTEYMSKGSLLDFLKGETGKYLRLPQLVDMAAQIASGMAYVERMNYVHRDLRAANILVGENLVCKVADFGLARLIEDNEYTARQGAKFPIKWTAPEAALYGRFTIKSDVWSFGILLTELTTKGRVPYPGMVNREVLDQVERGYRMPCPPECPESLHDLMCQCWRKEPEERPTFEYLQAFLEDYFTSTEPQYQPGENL
Description: as §1

T1 sequence (Q9C098 whole entry): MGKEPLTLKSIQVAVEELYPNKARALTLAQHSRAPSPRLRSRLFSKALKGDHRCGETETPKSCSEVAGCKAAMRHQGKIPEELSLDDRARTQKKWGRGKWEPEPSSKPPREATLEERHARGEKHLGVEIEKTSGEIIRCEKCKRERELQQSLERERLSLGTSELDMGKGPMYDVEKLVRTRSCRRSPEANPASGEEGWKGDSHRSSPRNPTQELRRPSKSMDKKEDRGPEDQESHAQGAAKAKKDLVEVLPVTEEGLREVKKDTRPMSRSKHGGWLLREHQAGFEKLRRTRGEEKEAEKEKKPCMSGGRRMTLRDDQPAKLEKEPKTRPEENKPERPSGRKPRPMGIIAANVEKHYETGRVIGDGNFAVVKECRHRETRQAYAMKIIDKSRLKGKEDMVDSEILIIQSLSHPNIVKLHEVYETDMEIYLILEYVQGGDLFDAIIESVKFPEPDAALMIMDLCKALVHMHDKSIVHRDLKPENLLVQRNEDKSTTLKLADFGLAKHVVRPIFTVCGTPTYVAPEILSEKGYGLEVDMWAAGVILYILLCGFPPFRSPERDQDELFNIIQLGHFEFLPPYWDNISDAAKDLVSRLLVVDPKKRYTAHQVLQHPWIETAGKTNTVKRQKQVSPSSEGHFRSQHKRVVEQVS

SMILES	KINOMEscan: DCAMKL3 [1]	KINOMEscan: MYLK2 [2]	KINOMEscan: DYRK1B [3]	% Ctrl, SRC [4] [% Ctrl]
COc1cc(C(=O)N2CCC(N3CCN(C)CC3)CC2)ccc1Nc1ncc2c(n1)N(C)c1ccccc1C(=O)N2C [15 (LRRK2-IN-1)]	90	98	94	100
COc1cc(C(=O)N2CCC(N3CCN(C)CC3)CC2)ccc1Nc1ncc2c(n1)N1CCc3cccc(c31)C(=O)N2C [Compound 24]	–	85	–	95
COc1cc(C(=O)N2CCC(N3CCN(C)CC3)CC2)ccc1Nc1ncc2c(n1)N(C1CCCC1)c1ccccc1C(=O)N2C [Compound 25, 11-cyclopentyl-2-((2-methoxy-4-(4-(4-methylpiperazin-1-yl)piperidine-1-carbonyl)phenyl)amino)-5-methyl-5H-benzo[e]pyrimido[5,4-b][1,4]diazepin-6(11H)-one]	100	100	69	90
CCOc1cc(C(=O)N2CCC(N3CCN(C)CC3)CC2)ccc1Nc1ncc2c(n1)N(C1CCCC1)c1ccccc1C(=O)N2C [Compound 26]	92	100	71	100

Reference: paper PMC3914206
